# Source: patent US20220288045A1, “Stable Pharmaceutical Composition Comprising Esomeprazole And Sodium Bicarbonate” (Chong Kun Dang Pharmaceutical Corp., priority 2019, published 2022)
# Read-outs that look alike come from different tables or passages of the source.
# Legend:
# [1] = aqueous solutions with 3 or less of a pH value; cited from earlier work
# [2] = Stability test of esomeprazole and omeprazole according to pH (HPLC content in buffer solution); assay type: physicochemical; conditions: in % (unit assumed)
# Procedure: After adding each 2 mL of 20 mg/mL strength of esomeprazole and omeprazole solutions to 100 mL of buffer solution, the content according to pH was analyzed, and the analysis method is as follows. <Analysis Method> A) Detector: Ultraviolet visible light absorption spectrometer (measurement wavelength: 280 nm) B) Column: Inertsil C8-3 (4.6×150 mm, 5 μm) or equivalent column C) Injection amount: 20 μl D) Flow rate: 1.5 mL/min E) Column temperature: constant temperature around 40° C. F) Sample temperature: constant temperature around 10° C.
# [3] = for pH: 200 mL artificial gastric juice + 200 mL purified water, 37° C.
# From the text: To set the content of sodium bicarbonate, the drug release conditions and gastric juice conditions were set as follows.
smiles,measurement,setting,value
"COc1ccc2nc([S@@+]([O-])Cc3ncc(C)c(OC)c3C)[nH]c2c1 [S-omeprazole, (S)-5-methoxy-24(4-methoxy-3,5-dimethyl-2-pyridinyl)-methyllsulfinyl-1H-benzimidazole]",decomposition half-life,[1],less than 10 minutes
same,content according to pH,"[2]; pH4.0, 5 min",64.1
same,content according to pH,"[2]; pH4.0, 10 min",31.0
same,content according to pH,"[2]; pH4.0, 15 min",15.9
same,content according to pH,"[2]; pH4.0, 30 min",6.9
same,content according to pH,"[2]; pH4.0, 45 min",1.7
same,content according to pH,"[2]; pH4.0, 60 min",0.9
same,content according to pH,"[2]; pH4.0, 120 min",0.1
same,content according to pH,"[2]; pH6.0, 5 min",74.4
same,content according to pH,"[2]; pH6.0, 10 min",72.8
same,content according to pH,"[2]; pH6.0, 15 min",71.0
same,content according to pH,"[2]; pH6.0, 30 min",68.9
same,content according to pH,"[2]; pH6.0, 45 min",66.3
same,content according to pH,"[2]; pH6.0, 60 min",63.6
same,content according to pH,"[2]; pH6.0, 120 min",54.9
same,content according to pH,"[2]; pH6.8, 5 min",95.6
same,content according to pH,"[2]; pH6.8, 10 min",90.8
same,content according to pH,"[2]; pH6.8, 15 min",90.5
same,content according to pH,"[2]; pH6.8, 30 min",89.7
same,content according to pH,"[2]; pH6.8, 45 min",88.9
same,content according to pH,"[2]; pH6.8, 60 min",88.3
same,content according to pH,"[2]; pH6.8, 120 min",86.2
same,content according to pH,"[2]; pH7.0, 5 min",99.6
same,content according to pH,"[2]; pH7.0, 10 min",99.0
same,content according to pH,"[2]; pH7.0, 15 min",99.3
same,content according to pH,"[2]; pH7.0, 30 min",98.9
same,content according to pH,"[2]; pH7.0, 45 min",98.7
same,content according to pH,"[2]; pH7.0, 60 min",98.1
same,content according to pH,"[2]; pH7.0, 120 min",96.8
same,content according to pH,"[2]; pH7.3, 5 min",100.1
same,content according to pH,"[2]; pH7.3, 10 min",100.1
same,content according to pH,"[2]; pH7.3, 15 min",100.0
same,content according to pH,"[2]; pH7.3, 30 min",100.0
same,content according to pH,"[2]; pH7.3, 45 min",100.0
same,content according to pH,"[2]; pH7.3, 60 min",100.0
same,content according to pH,"[2]; pH7.3, 120 min",99.90
same,content according to pH,"[2]; pH7.5, 5 min",99.4
same,content according to pH,"[2]; pH7.5, 10 min",99.3
same,content according to pH,"[2]; pH7.5, 15 min",99.2
same,content according to pH,"[2]; pH7.5, 30 min",99.1
same,content according to pH,"[2]; pH7.5, 45 min",99.3
same,content according to pH,"[2]; pH7.5, 60 min",99.1
same,content according to pH,"[2]; pH7.5, 120 min",98.2
same,content according to pH,"[2]; pH8.0, 15 min",101.1
same,content according to pH,"[2]; pH8.0, 30 min",100.9
same,content according to pH,"[2]; pH8.0, 45 min",100.7
same,content according to pH,"[2]; pH8.0, 60 min",100.7
same,content according to pH,"[2]; pH8.0, 120 min",100.0
O=C([O-])O.[Na+] [Sodium bicarbonate],amount of sodium bicarbonate that can represent neutral pH by neutralizing 200 mL of artificial gastric juice,[3]; 200 mL artificial gastric juice,at least 600 mg
same,pH,[3]; Sodium bicarbonate 500 mg,5.77
same,pH,[3]; Sodium bicarbonate 600 mg,6.51
same,pH,[3]; Sodium bicarbonate 700 mg,7.30
same,pH,[3]; Sodium bicarbonate 800 mg,7.30
same,pH,[3]; Sodium bicarbonate 900 mg,7.31
same,pH,"[3]; Sodium bicarbonate 1,000 mg",7.37
same,pH,"[3]; Sodium bicarbonate 1,100 mg",7.38
same,pH,"[3]; Sodium bicarbonate 1,200 mg",7.38
same,pH,"[3]; Sodium bicarbonate 1,300 mg",7.40
